Test results: patent US20030119800A1, “Bone anabolic compounds and methods of use” (priority 2001, published 2003)

Columns and labels:
[1] = system: osteoclasts generated in bone marrow cultures from adult female or male mice; experiment: Osteoclast apoptosis in bone marrow derived cultures; assay type: cell-based, mouse
Protocol: (§1) Osteoblastic cells (A) were isolated from calvaria of neonatal female or male mice, the sex of which was determined by Southern blot analysis of liver DNA with a Y chromosome specific cDNA probe; and cultured as previously described. The ability of the indicated steroids to protect against etoposide induced apoptosis was determined as in FIG. 1D, lower panel. (B) Osteoclasts were generated in bone marrow cultures from adult female or male mice, and then treated with vehicle or the indicated concentrations of steroids for 24 hours at which point the number of cells undergoing apoptosis was determined. Representative results from 1 of 4 females and 1 of 4 males examined are shown. Each point represents the mean of triplicate determinations±SD. *p<0.05 vs. vehicle, by ANOVA. (C & D) Eight-month old Swiss Webster mice (n=8-10 per group) were sham-operated, ovariectomized (OVX) or orchidectomized (ORX). […] BMD and wet uterine or seminal vesicle weight was determined six weeks later. Bars indicate means±SD. *p<0.05 vs OVX or ORX.
FIG. 8 illustrates the pro-apoptotic effect of sex steroids on osteoclasts requires Src/ERK signaling. […] After 24 hours, the percentage of apoptotic osteoclasts was determined as in FIG. 7.
(§2) Quantification of apoptotic cells in vitro: Apoptosis of HeLa cells or calvaria-derived osteoblastic cells was quantified by direct visualization of changes in nuclear morphology or by trypan blue staining, respectively, as previously described (Kousteni et al, 2001). Apoptosis of osteoclasts, derived from bone marrow cells cultured with 30 ng/ml M-CSF and 30 ng/ml soluble RANK ligand, was quantified by measuring caspase 3 activity as previously described (Weinstein et al, 2002).

[2] = system: ER (lamb uterus cytosol, human ERα, human ERβ); experiment: Relative binding affinity by competition with 3H E2 (FIG. 10)
Protocol: The proteins were absorbed to hydroxylapatite (HAP) and the free ligand removed by washing (Carlson et al, 1997). Results are expressed as percent specific binding. […] Symbols indicate means±SD of two separate experiments in which each point was determined in duplicate.
Statistical analysis: ANOVA was used to detect treatment effects. Specifically, in FIGS. 1-6 & 8, Dunnett's test (Kuehl et al, 2000) was used to detect differences between various treatments as compared to the vehicle control group. To detect differences in the efficacy of the various compounds shown in FIGS. 7A & B, the dose response curves were compared using tests for linear trend (Kuehl, 2002). Bonferroni's method was used to perform all pairwise comparisons of treatment groups in FIGS. 7E & F, FIGS. 11A, B, C, FIG. 12A, FIG. 13, FIGS. 14A and B and FIG. 9. Because the normality assumption was not satisfied for the data in FIGS. 3C & D and FIG. 12C, Wilcoxon's rank sum test (Steel et al, 1997) was used to perform all pairwise comparisons of treatment groups using a Bonferroni correction. In FIG. 14D, a two-way ANOVA was used to detect treatment and dose effects and tests for linear trend were subsequently employed to determine significant effects of each compound. In FIG. 10, logistic regression was used to estimate EC50, which was then used to determine the relative binding affinity. […]

MCF-7 cells = experiment: MCF-7 cell proliferation assay (3H-thymidine uptake); assay type: cell-based; settings: 10^−12-10^−7 M for 48 h
From the text: Wet uterine (A) or seminal vesicle weight (B) of female and male mice described in FIG. 11. […] Note the following morphologic differences in the uteri of OVX- and OVX+4-estren-3α,17β-diol-treated mice as compared to uteri from sham-operated and OVX+E2-treated mice: thin and atrophic columnar epithelium; compact stroma; decreased number of glands; decreased nucleus to cytoplasmic ratio in the columnar epithelial, endometrial stroma, and myometrial cells; and absence of mitotic activity. (D) Proliferation of MCF-7 cells was determined by ^3H-thymidine uptake.
MCF-7 cell proliferation assay: MCF-7 cells were serum-starved in the presence of 10^−8 M ICI 182,780 for 96 h, after which the ICI-containing medium was replaced with medium-containing vehicle or 10^−12-10^−7 M of the indicated steroids for an additional 48 h. At that time, proliferation was assayed by measuring ^3H-Thymidine uptake as previously described (Bellido et al, 1997).

[3] = system: calvaria-derived murine osteoblastic cells; experiment: Etoposide-induced apoptosis of calvaria-derived osteoblastic cells; assay type: cell-based, mouse
From the text: HeLa cells were co-transfected with reporter constructs in which SRE or AP-1 drive the expression of secreted alkaline phosphatase (SEAP), along with the wild type ERα (A and B); or its ligand binding domain (E), or E fused to a membrane (E-Mem) or nuclear (E-Nuc) localization sequence (A). A dominant negaitve (dn) MEK or dn Jnk were also introduced into a subset of the ERα transfected cells. […] In FIGS. 1A and 1B, 100% indicates activity in vehicle treated cells. (C) HeLa cells were co-transfected with the ERα and nEGFP and wild type or dn mutants of the indicated transcription factors. […] (D) HeLa cells (upper panel) were transiently co-transfected with the ERα, a nonphosphorylatable dn mutant of Bad. Calvaria-derived murine osteoblastic cells (lower panel) were pre-treated with the P13K inhibitor wortmannin. Cells were then treated as in (C). […] (E) Proposed model for a kinase-mediated non-genotropic regulation of gene transcription and apoptosis by sex steroids.
as §1, §2

For `C[C@]12CC[C@H]3[C@@H](CCC4=C[C@H](O)CC[C@@H]43)[C@@H]1CC[C@@H]2O` [4-estren-3α,17β-diol], which “difference in potency in osteoclasts from females and males” value [1] is on record?
The value was “no difference”.

And the “binding affinity for the ER compared to E2” value [2]?
Its value is “lower binding affinity”.

What about the MCF-7 cell proliferation (MCF-7 cells) of the same molecule?
The MCF-7 cell proliferation was “did not stimulate”.

What about the “difference in potency in osteoblasts from one sex versus the other” value ([3]; cell preparations from females or males) of the same molecule?
Its value is “no difference”.

What about the “etoposide-induced apoptosis in primary cultures of osteoblasts” value ([3]; cells from female or male mice, dose dependent manner) of the same molecule?
Its value is “attenuated etoposide-induced apoptosis”.
